In one test the test system is LXR. Briefly: In vitro transactivation assay in CV-1 cells, antagonism of T0901317-induced Gal-LXR activation. The test is classed as cell-based. The settings on record: at 10 μM, with 1 μM agonist T0901317, dose-dependent. The source says: In vitro screens such as the transactivation assay can be used to measure the ability of a compound to inhibit a nuclear receptor regulating lipid or carbohydrate uptake, synthesis or metabolism. In the assay described herein compounds can be identified that can inhibit activation of the following nuclear receptors: LXR, PPARα, PPARγ and FXR. This activity can be useful to treat lipid disorders such as hypercholesteremia and obesity.
Cell line: Kidney Green Monkey CV-1 cells.
Growing culturing medium: Dulbecco's modified Eagle's medium (DMEM) supplememnted with 10% fetal calf serum (FCS).
Procedure: CV-1 cells were plated in 48 well-plate culture plates, at a density of 10,000 cells/well, 24 h prior to transfection. One to three hours before transfection, cells were fed with fresh medium. A modified calcium phosphate precipitation procedure was used for transient transfection (Pfahl, M. et al., 1990, Methods in Enzymology 189: 256).
Typically, 40 ng reporter plasmid and 20 ng of each receptor expression vector were mixed, together with 10 ng of β-galactosidase control plasmid (pCH110, Pharmacia, Piscataway, N.J.) and Bluescript plasmid to obtain a total of 400 ng DNA per well. To this mixture 1 μl of 2.5M CaCl2 and 10 μl of BBS buffer, pH 6.95, were added afterward. […]

Test [1] relates to human cancer cell lines (A549, MDA-MB-468, PC-3, Bx-PC3). Briefly: MTT anti-cancer assay, the other cancer cell lines of the panel. The format is cell-based. The settings on record: at 10 μM, 6 days, cell lines other than MDA-MB-468 (A549, PC-3, Bx-PC3). The source says:
The anti-cancer activity of the compounds of the invention herein have been tested in in vitro assays using a microculture assay with 3-(4,5-dimethylthiazol-2-yl)-2,5-diphenyltetrazolium bromide (“MTT”) a test well known to those skilled in the art. This assay has an advantage over in vivo assay in that results are obtained within a week as opposed to several months. The assay can be carried out in 96-well microtiter plates. The MTT assay is based on the production of a dark blue formazan product by dehydrogenase in the mitochondria of live tumor cells after exposure to drug for 6 days [M. C. […] Thus, only live cells are stained and can be measured at 595 nm. […]
Treatment: Before commencing drug treatment, cells were replenished with media containing 0.5% FCS. […] As an end point, the amount of surviving cells (Live cells) was measured using a standard […] assay (MTT based), and calculated as percentage of cells treated with vehicle (DMSO) alone (% control).
MTT assay: The assay is based on the cleavage of the yellow tetrazolium salt MTT to purple formazan crystals by dehydrogenase activity in active mitochondria. […] The formazan crystals formed are solubilized and the resulting colored solution is quantified using a scanning multiwell spectrophotometer. […]
(Tetrazolium assays rely on reduction of a dye to a coloured formazan, in cell work by metabolically active cells.)

Structures are written as SMILES. Where only a bound is given, the exact number is not on record here.

The values that follow come from patent US7071218B2, “N-substituted heterocycles for the treatment of hypercholesteremia, dyslipidemia and other metabolic disorders; cancer, and other diseases” (Incyte San Diego Incorporated, priority 2001, dated 2006).

Take `CN(C)c1cc2c(cc1-c1ccc3cc(/C=C4\SC(=S)N(CC(=O)O)C4=O)ccc3c1)C(C)(C)CCC2(C)C` [Compound 7, {5-[6-(3-Dimethylamino-5,5,8,8-tetramethyl-5,6,7,8-tetrahydro-naphthalen-2-yl)-naphthalen-2-ylmethylene]-4-oxo-2-thioxo-thiazolidin-3-yl}-acetic acid]: the “inhibition of T0901317-induced LXR activation” value in the test on LXR is 80–90%. The molecule also registered a cells killed in test [1] not above 50%.
